#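 The concentration for 50% growth inhibition is given as GI50. Definition used: TGI = concentration required for complete inhibition of growth.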
# Tests used:
# Assay in all cases: growth of human tumour cells (NCI), 384-well format
# NCI-H522 lung = tested on: NCI-H522 lung
# SF-295 CNS = tested on: SF-295 CNS
# SW-620 colon = tested on: SW-620 colon
# IGROV1 ovarian = tested on: IGROV1 ovarian
# NCI-H226 lung = tested on: NCI-H226 lung
# CCRF-CEM leukemia = tested on: CCRF-CEM leukemia
# MALME-3M melanoma = tested on: MALME-3M melanoma
# SK-OV-3 ovarian = tested on: SK-OV-3 ovarian
# RPMI-8226 leukemia = tested on: RPMI-8226 leukemia
# HCT-15 colon = tested on: HCT-15 colon
# MDA-MB-468 breast = tested on: MDA-MB-468 breast
# TK-10 renal = tested on: TK-10 renal
# RXF 393 renal = tested on: RXF 393 renal
# EKVX NSCLC = tested on: EKVX NSCLC
# BT-549 breast = tested on: BT-549 breast
# SNB-75 CNS = tested on: SNB-75 CNS
# UACC-62 melanoma = tested on: UACC-62 melanoma
# OVCAR-3 ovarian = tested on: OVCAR-3 ovarian
# HCT-116 colon = tested on: HCT-116 colon
# UACC-257 melanoma = tested on: UACC-257 melanoma
# SNB-19 CNS = tested on: SNB-19 CNS
# K-562 leukemia = tested on: K-562 leukemia
# COLO 205 colon = tested on: COLO 205 colon
# SK-MEL-5 melanoma = tested on: SK-MEL-5 melanoma
# MOLT-4 leukemia = tested on: MOLT-4 leukemia
# ACHN renal = tested on: ACHN renal
# HT29 colon = tested on: HT29 colon
# UO-31 renal = tested on: UO-31 renal
# SF-268 CNS = tested on: SF-268 CNS
# CAKI-1 renal = tested on: CAKI-1 renal
# PC-3 prostate = tested on: PC-3 prostate
# LOX IMVI melanoma = tested on: LOX IMVI melanoma
# HS 578T breast = tested on: HS 578T breast
# U251 glioblastoma = tested on: U251 glioblastoma
# MDA-MB-231 breast = tested on: MDA-MB-231 breast
# NCI-H322M lung = tested on: NCI-H322M lung
# SF-539 CNS = tested on: SF-539 CNS
# MDA-MB-435 melanoma = tested on: MDA-MB-435 melanoma
# HL-60(TB) leukemia = tested on: HL-60(TB) leukemia
# NCI-H23 lung = tested on: NCI-H23 lung
# 786-0 renal = tested on: 786-0 renal
# HOP-92 NSCLC = tested on: HOP-92 NSCLC
# KM12 colon = tested on: KM12 colon
# HOP-62 NSCLC = tested on: HOP-62 NSCLC
# NCI/ADR-RES ovarian = tested on: NCI/ADR-RES ovarian
# M14 melanoma = tested on: M14 melanoma
# DU-145 prostate = tested on: DU-145 prostate
# OVCAR-5 ovarian = tested on: OVCAR-5 ovarian
# SK-MEL-28 melanoma = tested on: SK-MEL-28 melanoma
# T-47D breast = tested on: T-47D breast
# HCC-2998 colon = tested on: HCC-2998 colon
# OVCAR-4 ovarian = tested on: OVCAR-4 ovarian
# A549 NSCLC = tested on: A549 NSCLC
# MCF7 breast = tested on: MCF7 breast
# OVCAR-8 ovarian = tested on: OVCAR-8 ovarian
# NCI-H460 NSCLC = tested on: NCI-H460 NSCLC
# SN12C renal = tested on: SN12C renal
# A498 renal = tested on: A498 renal
compound,measurement,setting,value
CC1=C2C[C@H]3[C@@H](CC[C@@H]4CC(NS(C)(=O)=O)CC[C@@]43C)[C@@H]2CC[C@@]2(C1)O[C@@H]1C[C@H](C)CN[C@H]1[C@H]2C (stereo partly specified),GI50,NCI-H522 lung,3.46 µM
same,TGI,NCI-H522 lung,8.3 µM
same,GI50,SF-295 CNS,13.3 µM
same,TGI,SF-295 CNS,26.1 µM
same,GI50,SW-620 colon,13.8 µM
same,TGI,SW-620 colon,26.8 µM
same,GI50,IGROV1 ovarian,1.88 µM
same,TGI,IGROV1 ovarian,3.47 µM
same,GI50,NCI-H226 lung,5.5 µM
same,TGI,NCI-H226 lung,17.6 µM
same,GI50,CCRF-CEM leukemia,1.95 µM
same,TGI,CCRF-CEM leukemia,3.74 µM
same,GI50,MALME-3M melanoma,1.88 µM
same,TGI,MALME-3M melanoma,3.32 µM
same,GI50,SK-OV-3 ovarian,3.8 µM
same,TGI,SK-OV-3 ovarian,10.2 µM
same,GI50,RPMI-8226 leukemia,3.72 µM
same,TGI,RPMI-8226 leukemia,11.2 µM
same,GI50,HCT-15 colon,3.89 µM
same,TGI,HCT-15 colon,13.6 µM
same,GI50,MDA-MB-468 breast,2.08 µM
same,TGI,MDA-MB-468 breast,3.96 µM
same,GI50,TK-10 renal,2.75 µM
same,TGI,TK-10 renal,7.38 µM
same,GI50,RXF 393 renal,2.98 µM
same,TGI,RXF 393 renal,9.2 µM
same,GI50,EKVX NSCLC,3.44 µM
same,TGI,EKVX NSCLC,8.77 µM
same,GI50,BT-549 breast,4.17 µM
same,TGI,BT-549 breast,12.8 µM
same,GI50,SNB-75 CNS,3.82 µM
same,TGI,SNB-75 CNS,15 µM
same,GI50,UACC-62 melanoma,10.7 µM
same,TGI,UACC-62 melanoma,22.6 µM
same,GI50,OVCAR-3 ovarian,3.97 µM
same,TGI,OVCAR-3 ovarian,11.5 µM
same,GI50,HCT-116 colon,3.83 µM
same,TGI,HCT-116 colon,12.7 µM
same,GI50,UACC-257 melanoma,2.19 µM
same,TGI,UACC-257 melanoma,3.64 µM
same,GI50,SNB-19 CNS,5.22 µM
same,TGI,SNB-19 CNS,16.4 µM
same,GI50,K-562 leukemia,1.83 µM
same,TGI,K-562 leukemia,3.23 µM
same,GI50,COLO 205 colon,2.46 µM
same,TGI,COLO 205 colon,5.34 µM
same,GI50,SK-MEL-5 melanoma,1.72 µM
same,TGI,SK-MEL-5 melanoma,3.12 µM
same,GI50,MOLT-4 leukemia,1.83 µM
same,TGI,MOLT-4 leukemia,3.55 µM
same,GI50,ACHN renal,2.62 µM
same,TGI,ACHN renal,6.64 µM
same,GI50,HT29 colon,1.9 µM
same,TGI,HT29 colon,3.55 µM
same,GI50,UO-31 renal,3.9 µM
same,TGI,UO-31 renal,13.7 µM
same,GI50,SF-268 CNS,3.22 µM
same,TGI,SF-268 CNS,9.73 µM
same,GI50,CAKI-1 renal,4.29 µM
same,TGI,CAKI-1 renal,15.8 µM
same,GI50,PC-3 prostate,3.6 µM
same,TGI,PC-3 prostate,11.5 µM
same,GI50,LOX IMVI melanoma,1.88 µM
same,TGI,LOX IMVI melanoma,3.6 µM
same,GI50,HS 578T breast,10.8 µM
same,TGI,HS 578T breast,22.7 µM
same,GI50,U251 glioblastoma,4.31 µM
same,TGI,U251 glioblastoma,14.2 µM
same,GI50,MDA-MB-231 breast,11.6 µM
same,TGI,MDA-MB-231 breast,23.8 µM
same,GI50,NCI-H322M lung,10.9 µM
same,TGI,NCI-H322M lung,22.9 µM
same,GI50,SF-539 CNS,5.02 µM
same,TGI,SF-539 CNS,15.9 µM
same,GI50,MDA-MB-435 melanoma,12.4 µM
same,TGI,MDA-MB-435 melanoma,25 µM
same,GI50,HL-60(TB) leukemia,3.3 µM
same,TGI,HL-60(TB) leukemia,12.2 µM
same,GI50,NCI-H23 lung,14.9 µM
same,TGI,NCI-H23 lung,28.2 µM
same,GI50,786-0 renal,2.21 µM
same,TGI,786-0 renal,5.06 µM
same,GI50,HOP-92 NSCLC,3.4 µM
same,TGI,HOP-92 NSCLC,12.7 µM
same,GI50,KM12 colon,8.44 µM
same,TGI,KM12 colon,20.6 µM
same,GI50,HOP-62 NSCLC,4.47 µM
same,TGI,HOP-62 NSCLC,15.1 µM
same,GI50,NCI/ADR-RES ovarian,13.7 µM
same,TGI,NCI/ADR-RES ovarian,26.7 µM
same,GI50,M14 melanoma,2.49 µM
same,TGI,M14 melanoma,5.93 µM
same,GI50,DU-145 prostate,5.47 µM
same,TGI,DU-145 prostate,16.6 µM
same,GI50,OVCAR-5 ovarian,13.8 µM
same,TGI,OVCAR-5 ovarian,26.8 µM
same,GI50,SK-MEL-28 melanoma,3.01 µM
same,TGI,SK-MEL-28 melanoma,6.71 µM
same,GI50,T-47D breast,2.12 µM
same,TGI,T-47D breast,4.28 µM
same,GI50,HCC-2998 colon,3.47 µM
same,TGI,HCC-2998 colon,9.91 µM
same,GI50,OVCAR-4 ovarian,5.29 µM
same,TGI,OVCAR-4 ovarian,14.8 µM
same,GI50,A549 NSCLC,4 µM
same,TGI,A549 NSCLC,14.2 µM
same,GI50,MCF7 breast,3.24 µM
same,TGI,MCF7 breast,11.9 µM
same,GI50,OVCAR-8 ovarian,13.4 µM
same,TGI,OVCAR-8 ovarian,26.3 µM
same,GI50,NCI-H460 NSCLC,1.94 µM
same,TGI,NCI-H460 NSCLC,3.61 µM
same,GI50,SN12C renal,3.89 µM
same,TGI,SN12C renal,13 µM
same,GI50,A498 renal,2.99 µM
same,TGI,A498 renal,7.76 µM

# Source: PubChem BioAssay (NCI)
